Here are results for 20 compounds from US9346809B2 (LEO PHARMA A/S, priority 2009, dated 2016).

Common to all, as to type: biochemical
The target in experiment [1] is T1, JAK1 (aa 850-1154, catalytic domain, GST-tag) (Homo sapiens, UniProt P23458).
T1 construct: JAK1 (aa 850-1154) and TYK2 (aa 871-1187) are expressed with an N-terminally fused GST-tag; GST (N); purchased Carna Biosciences, Inc; host or cells: baculovirus expression system
Briefly: JAK kinase assay (HTRF, phosphorylation of TK substrate-biotin), JAK1. The following applies: ATP at Km (7 μM), read-out: JAK1 kinase inhibitory activity (EC50 indicator). The gist of the method:
(§1)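 Compound was mixed with TK substrate-biotin (1 μM final), then kinase plus ATP at its Km was added and left 20-30 min at room temperature. Detection mix with EDTA, Streptavidin-XL665 and STK Ab Cryptate stopped the reaction; after overnight dark incubation, HTRF was read and EC50 derived.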
(TR-FRET usually uses a lanthanide donor and a delayed reading to cut background.)

For experiment [2], the target named is T2, TYK2 (aa 871-1187, catalytic domain, GST-tag) (Homo sapiens, UniProt P29597).
T2 construct: JAK1 (aa 850-1154) and TYK2 (aa 871-1187) are expressed with an N-terminally fused GST-tag; GST (N); purchased Carna Biosciences, Inc; host or cells: baculovirus expression system
T2 sequence (P29597 871-1187): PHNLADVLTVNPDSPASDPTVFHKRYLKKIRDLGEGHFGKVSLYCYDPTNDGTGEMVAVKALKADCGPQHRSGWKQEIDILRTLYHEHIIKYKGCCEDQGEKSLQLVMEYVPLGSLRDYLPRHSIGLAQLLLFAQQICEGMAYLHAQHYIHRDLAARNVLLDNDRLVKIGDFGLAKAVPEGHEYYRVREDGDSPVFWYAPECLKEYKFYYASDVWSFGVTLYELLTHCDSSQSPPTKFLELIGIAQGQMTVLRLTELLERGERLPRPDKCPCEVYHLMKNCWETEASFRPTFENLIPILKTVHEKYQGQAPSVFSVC
Nature of the experiment: JAK kinase assay (HTRF, phosphorylation of TK substrate-biotin), TYK2. The following applies: ATP at Km (13 μM), read-out: TYK2 kinase inhibitory activity (EC50 indicator). The gist of the method:
as §1

In experiment [3] the target is T3, JAK2 (catalytic domain, His-tag) (Homo sapiens, UniProt O60674).
T3 construct: All four purified enzymes contain only the catalytic domain; His (N); purchased Carna Biosciences, Inc; host or cells: baculovirus expression system
T3 sequence (O60674 849-1124 limits assumed): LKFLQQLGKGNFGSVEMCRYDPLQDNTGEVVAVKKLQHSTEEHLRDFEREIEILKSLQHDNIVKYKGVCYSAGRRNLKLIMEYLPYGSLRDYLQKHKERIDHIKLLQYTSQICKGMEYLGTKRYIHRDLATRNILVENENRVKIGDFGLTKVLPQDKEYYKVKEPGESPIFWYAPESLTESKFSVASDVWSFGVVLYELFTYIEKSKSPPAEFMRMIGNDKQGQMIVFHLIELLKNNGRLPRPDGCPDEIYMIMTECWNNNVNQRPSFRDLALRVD
Nature of the experiment: JAK kinase assay (HTRF, phosphorylation of TK substrate-biotin), JAK2. The following applies: ATP at Km (4 μM), read-out: JAK2 kinase inhibitory activity (EC50 indicator). The gist of the method: as §1

Experiment [4] deals with T4, JAK3 (catalytic domain, His-tag) (Homo sapiens, UniProt P52333).
T4 construct: All four purified enzymes contain only the catalytic domain; His (N); purchased Carna Biosciences, Inc; host or cells: baculovirus expression system
T4 sequence (P52333 822-1111 limits assumed): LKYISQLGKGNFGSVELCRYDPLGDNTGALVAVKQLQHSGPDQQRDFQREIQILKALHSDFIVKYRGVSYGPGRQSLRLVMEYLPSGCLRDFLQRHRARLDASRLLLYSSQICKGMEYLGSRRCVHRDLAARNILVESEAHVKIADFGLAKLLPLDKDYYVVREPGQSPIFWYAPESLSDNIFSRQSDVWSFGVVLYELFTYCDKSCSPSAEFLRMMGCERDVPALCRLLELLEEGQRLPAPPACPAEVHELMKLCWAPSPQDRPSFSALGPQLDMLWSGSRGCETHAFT
Briefly: JAK kinase assay (HTRF, phosphorylation of TK substrate-biotin), JAK3. The following applies: ATP at Km (2 μM), read-out: JAK3 kinase inhibitory activity (EC50 indicator). The gist of the method:
as §1

For orientation: EC50 means the concentration that produces a half-maximal response.

Like-named read-outs stand apart in the source and are kept apart here.

T1 sequence (P23458 850-1154): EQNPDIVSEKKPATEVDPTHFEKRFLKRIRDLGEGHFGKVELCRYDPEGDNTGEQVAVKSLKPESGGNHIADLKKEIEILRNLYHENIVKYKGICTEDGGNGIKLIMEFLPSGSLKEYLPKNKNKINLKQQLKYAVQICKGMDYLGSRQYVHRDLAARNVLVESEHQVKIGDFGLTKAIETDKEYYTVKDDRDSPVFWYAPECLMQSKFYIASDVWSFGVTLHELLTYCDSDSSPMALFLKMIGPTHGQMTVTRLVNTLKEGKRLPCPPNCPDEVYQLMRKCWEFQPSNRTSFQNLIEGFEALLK

On to `CS(=O)(=O)c1ccc(C(=O)N2C3CCC2CN(c2ncnc4[nH]ccc24)C3)cc1F` [Example 131, (3-Fluoro-4-methanesulfonyl-phenyl)-[3-(7H-pyrrolo[2,3-d]pyrimidin-4-yl)-3,8-diaza-bicyclo[3.2.1]oct-8-yl]-methanone], for which the EC50 was < 100 nM in experiment [1], 100 to 500 nM in experiment [2], < 100 nM in experiment [3] and 100 to 500 nM in experiment [4].

For the compound `Cc1cc2[nH]c(C(=O)N3[C@@H]4CC[C@H]3CN(c3ncnc5[nH]ccc35)C4)cc2cc1F` [Example 110, (5-Fluoro-6-methyl-1H-indol-2-yl)-[3-(7H-pyrrolo[2,3-d]pyrimidin-4-yl)-3,8-diaza-bicyclo[3.2.1]oct-8-yl]-methanone], the EC50 in experiment [1] was < 100 nM; in experiment [2], > 500 nM; in experiment [3] it was 100 to 500 nM; in experiment [4], 100 to 500 nM.

For the compound `C#CCOC(=O)N1[C@@H]2CC[C@H]1CN(c1ncnc3[nH]ccc13)C2` [Example 59, 3-(7H-Pyrrolo[2,3-d]pyrimidin-4-yl)-3,8-diazabicyclo[3.2.1]octane-8-carboxylic acid prop-2-ynyl ester], the EC50 in experiment [1] was 100 to 500 nM; in experiment [2], > 500 nM; in experiment [3], 100 to 500 nM; in experiment [4], 100 to 500 nM.

With `O=C(c1ccc2[nH]c(=O)ccc2c1)N1[C@@H]2CC[C@@H]1CN(c1ncnc3[nH]ccc13)C2` [Example 355, 6-[3-(7H-Pyrrolo[2,3-d]pyrimidin-4-yl)-3,8-diaza-bicyclo[3.2.1]octane-8-carbonyl]-1H-quinolin-2-one], the EC50 in experiment [1] (HTRF assay) was < 100 nM; in experiment [2] (HTRF assay), > 500 nM; in experiment [3] (HTRF assay), < 100 nM; in experiment [4] (HTRF assay), 100 to 500 nM.

Regarding `O=C(Cc1cccs1)N1[C@@H]2CC[C@H]1CN(c1ncnc3[nH]ccc13)C2` [Example 109, 1-[3-(7H-Pyrrolo[2,3-d]pyrimidin-4-yl)-3,8-diaza-bicyclo[3.2.1]oct-8-yl]-2-thiophen-2-yl-ethanone], the EC50 was < 100 nM in experiment [1], > 500 nM in experiment [2], < 100 nM in experiment [3] and 100 to 500 nM in experiment [4].

As to `CS(=O)(=O)NCCC(=O)N1[C@@H]2CC[C@@H]1CN(c1ncnc3[nH]ccc13)C2` [Example 176, N-{3-Oxo-3-[3-(7H-pyrrolo[2,3-d]pyrimidin-4-yl)-3,8-diaza-bicyclo[3.2.1]oct-8-yl]-propyl}-methanesulfonamide], the concentration giving a half-maximal response (EC50) in experiment [1] was 100 to 500 nM; in experiment [2] it was > 500 nM; in experiment [3] it was 100 to 500 nM; in experiment [4], > 500 nM.

Turning to `O=C(c1ccncc1)N1CCN(c2ccnc3[nH]ccc23)CC12CC2` [Example 224, Pyridin-4-yl-[7-(1H-pyrrolo[2,3-b]pyridin-4-yl)-4,7-diaza-spiro[2.5]oct-4-yl]-methanone], the EC50 in experiment [1] (HTRF assay) is 100 to 500 nM; in experiment [2] (HTRF assay), > 500 nM; in experiment [3] (HTRF assay), 100 to 500 nM; in experiment [4] (HTRF assay) it was > 500 nM.

Take `O=C(CC(F)(F)F)N1[C@@H]2CC[C@H]1CN(c1ncnc3[nH]ccc13)C2` [Example 40, 3,3,3-Trifluoro-1-[3-(7H-pyrrolo[2,3-d]pyrimidin-4-yl)-3,8-diaza-bicyclo[3.2.1]oct-8-yl]propan-1-one]: the EC50 in experiment [1] was 100 to 500 nM; in experiment [2] it was > 500 nM; in experiment [3], 100 to 500 nM; in experiment [4], > 500 nM.

Take `N#CCCC(=O)N1CCN(c2nc(N)nc3[nH]ccc23)CC12CC2` [Example 313, 4-[7-(2-Amino-7H-pyrrolo[2,3-d]pyrimidin-4-yl)-4,7-diaza-spiro[2.5]oct-4-yl]-4-oxo-butyronitrile]: the EC50 is < 100 nM in experiment [1] (HTRF assay), 100 to 500 nM in experiment [2] (HTRF assay), < 100 nM in experiment [3] (HTRF assay) and < 100 nM in experiment [4] (HTRF assay).

Take `N#CCC(=O)N1[C@@H]2CC[C@H]1CN(c1ncnc3[nH]ccc13)C2` [Example 53, 3-Oxo-3-[3-(7H-pyrrolo[2,3-d]pyrimidin-4-yl)-3,8-diazabicyclo[3.2.1]oct-8-yl]propionitrile]: the EC50 in experiment [1] was 100 to 500 nM; in experiment [2], > 500 nM; in experiment [3] it was 100 to 500 nM; in experiment [4], 100 to 500 nM.

On to `CC(C)(C)OC(=O)N1[C@@H]2CC[C@H]1CN(c1ncnc3[nH]ccc13)C2` [Example 9, 3-(7H-Pyrrolo[2,3-d]pyrimidin-4-yl)-3,8-diaza-bicyclo[3.2.1]octane-8-carboxylic acid tert-butyl ester], for which the concentration giving a half-maximal response (EC50) in experiment [1] is 100 to 500 nM; in experiment [2] it was > 500 nM; in experiment [3], < 100 nM; in experiment [4], 100 to 500 nM.

As for `O=C([C@H]1CCCc2ccccc21)N1CCN(c2ncnc3[nH]ccc23)CC12CC2` [Example 416, [7-(7H-Pyrrolo[2,3-d]pyrimidin-4-yl)-4,7-diaza-spiro[2.5]oct-4-yl]-(1,2,3,4-tetrahydro-naphthalen-1-yl)-methanone], the EC50 was 100 to 500 nM in experiment [1] (HTRF assay), > 500 nM in experiment [2] (HTRF assay), < 100 nM in experiment [3] (HTRF assay) and 100 to 500 nM in experiment [4] (HTRF assay).

For `N#CC1(C(=O)N2CCN(c3ccnc4[nH]ccc34)CC23CC3)CC1` [Example 117, 1-[7-(1H-Pyrrolo[2,3-b]pyridin-4-yl)-4,7-diaza-spiro[2.5]octane-4-carbonyl]-cyclopropanecarbonitrile], the EC50 in experiment [1] was 100 to 500 nM; in experiment [2], > 500 nM; in experiment [3], 100 to 500 nM; in experiment [4], 100 to 500 nM.

Regarding `O=C(c1ccc(-c2ccccc2)cc1)N1CCN(c2ncnc3[nH]ccc23)CC12CC2` [Example 5, Biphenyl-4-yl-[7-(7H-pyrrolo[2,3-d]pyrimidin-4-yl)-4,7-diazaspiro[2.5]oct-4-yl]methanone], the EC50 in experiment [1] is < 100 nM; in experiment [2], > 500 nM; in experiment [3], < 100 nM; in experiment [4], 100 to 500 nM.

With `N#Cc1ccc(C(=O)C(=O)N2C3CCC2CN(c2ncnc4[nH]ccc24)C3)cc1` [Example 128, 4-{2-Oxo-2-[3-(7H-pyrrolo[2,3-d]pyrimidin-4-yl)-3,8-diaza-bicyclo[3.2.1]oct-8-yl]-acetyl}-benzonitrile], the EC50 in experiment [1] was < 100 nM; in experiment [2] it was > 500 nM; in experiment [3], < 100 nM; in experiment [4], 100 to 500 nM.

As to `O=C(c1ccc2c(c1)CCCC2)N1CCN(c2ncnc3[nH]ccc23)CC12CC2` [Example 218, [7-(7H-Pyrrolo[2,3-d]pyrimidin-4-yl)-4,7-diaza-spiro[2.5]oct-4-yl]-(5,6,7,8-tetrahydro-naphthalen-2-yl)-methanone], the EC50 in experiment [1] (HTRF assay) is < 100 nM; in experiment [2] (HTRF assay), > 500 nM; in experiment [3] (HTRF assay) it was < 100 nM; in experiment [4] (HTRF assay), > 500 nM.

In the case of `N#CCCN1CCC(C(=O)N2CCN(c3ncnc4[nH]ccc34)CC23CC3)CC1` [Example 97, 3-{4-[7-(7H-Pyrrolo[2,3-d]pyrimidin-4-yl)-4,7-diaza-spiro[2.5]octane-4-carbonyl]-piperidin-1-yl}-propionitrile], the EC50 was < 100 nM in experiment [1], > 500 nM in experiment [2], 100 to 500 nM in experiment [3] and 100 to 500 nM in experiment [4].

With `Cc1sc(C(=O)N2CCN(c3ncnc4[nH]ccc34)CC23CC3)cc1Br` [Example 208, (4-Bromo-5-methyl-thiophen-2-yl)-[7-(7H-pyrrolo[2,3-d]pyrimidin-4-yl)-4,7-diaza-spiro[2.5]oct-4-yl]-methanone], the EC50 in experiment [1] (HTRF assay), in experiment [2] (HTRF assay), in experiment [3] (HTRF assay) and in experiment [4] (HTRF assay) was < 100 nM each time.

In the case of `CS(=O)(=O)c1ccc(CC(=O)N2CCN(c3ncnc4[nH]ccc34)CC23CC3)cc1` [Example 107, 2-(4-Methanesulfonyl-phenyl)-1-[7-(7H-pyrrolo[2,3-d]pyrimidin-4-yl)-4,7-diaza-spiro[2.5]oct-4-yl]-ethanone], the EC50 in experiment [1] is < 100 nM; in experiment [2] it was > 500 nM; in experiment [3], < 100 nM; in experiment [4], < 100 nM.

For the compound `O=C(Cc1cccs1)N1CCN(c2ncnc3[nH]ccc23)CC12CC2` [Example 190, 1-[7-(7H-Pyrrolo[2,3-d]pyrimidin-4-yl)-4,7-diaza-spiro[2.5]oct-4-yl]-2-thiophen-2-yl-ethanone], the EC50 was < 100 nM in experiment [1], 100 to 500 nM in experiment [2], < 100 nM in experiment [3] and < 100 nM in experiment [4].
